Legend:
Assay in all cases: KinaseProfiler
Format in all cases: biochemical
Details in all cases: 10 μM, ATP near Km
MELK = target: T1, MELK (Homo sapiens, UniProt Q14680)
T1 construct: purchased Millipore, Inc. (KinaseProfiler service)
How it was run: (§1)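 Single-point panel screen: compound fixed at 10 μM, ATP set near each enzyme's Km, two replicates per kinase; results expressed as POC averaged across replicates.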

Tie2 = target: T2, Tie2 (Homo sapiens, UniProt Q02763)
T2 construct: purchased Millipore, Inc. (KinaseProfiler service)
How it was run: as §1

CDK6/cyclinD3 = target: T3, CDK6/cyclinD3 (Homo sapiens, UniProt Q00534)
T3 construct: purchased Millipore, Inc. (KinaseProfiler service)
How it was run: as §1

EphA4 = target: T4, EphA4 (Homo sapiens, UniProt P54764)
T4 construct: purchased Millipore, Inc. (KinaseProfiler service)
How it was run: as §1

AKT1 = target: T5, AKT1 (Homo sapiens, UniProt P31749)
T5 construct: purchased Millipore (KinaseProfiler service)
How it was run: as §1

KIT = target: T6, KIT (Homo sapiens, UniProt P10721)
T6 construct: purchased Millipore, Inc. (KinaseProfiler service)
How it was run: as §1

IRAK4 = target: T7, IRAK4 (Homo sapiens, UniProt Q9NWZ3)
T7 construct: purchased Millipore, Inc. (KinaseProfiler service)
How it was run: as §1

IKKbeta = target: T8, IKKbeta (Homo sapiens, UniProt O14920)
T8 construct: purchased Millipore, Inc. (KinaseProfiler service)
How it was run: as §1

Hck = target: T9, Hck (Homo sapiens, UniProt P08631)
T9 construct: purchased Millipore, Inc. (KinaseProfiler service)
How it was run: as §1

Ret = target: T10, Ret (Homo sapiens, UniProt P07949)
T10 construct: purchased Millipore, Inc. (KinaseProfiler service)
How it was run: as §1

MuSK = target: T11, MuSK (Homo sapiens, UniProt O15146)
T11 construct: purchased Millipore, Inc. (KinaseProfiler service)
How it was run: as §1

Rsk3 = target: T12, Rsk3 (Homo sapiens, UniProt Q15349)
T12 construct: purchased Millipore, Inc. (KinaseProfiler service)
How it was run: as §1

MAP3K5 = target: T13, MAP3K5 (Homo sapiens, UniProt Q99683)
T13 construct: purchased Millipore, Inc. (KinaseProfiler service)
How it was run: as §1

PKCepsilon = target: T14, PKCepsilon (Homo sapiens, UniProt Q02156)
T14 construct: purchased Millipore, Inc. (KinaseProfiler service)
How it was run: as §1

JNK2alpha2 = target: T15, JNK2alpha2 (Homo sapiens, UniProt P45984)
T15 construct: purchased Millipore, Inc. (KinaseProfiler service)
How it was run: as §1

LOK = target: T16, LOK (Homo sapiens, UniProt O94804)
T16 construct: purchased Millipore, Inc. (KinaseProfiler service)
How it was run: as §1

Pim-3 = target: T17, Pim-3 (Homo sapiens, UniProt Q86V86)
T17 construct: purchased Millipore, Inc. (KinaseProfiler service)
How it was run: as §1

ITK = target: T18, ITK (Homo sapiens, UniProt Q08881)
T18 construct: purchased Millipore, Inc. (KinaseProfiler service)
How it was run: as §1

Lck = target: T19, Lck (Homo sapiens, UniProt P06239)
T19 construct: purchased Millipore, Inc. (KinaseProfiler service)
How it was run: as §1

MAPKAP-K3 = target: T20, MAPKAP-K3 (Homo sapiens, UniProt Q16644)
T20 construct: purchased Millipore, Inc. (KinaseProfiler service)
How it was run: as §1

TSSK2 = target: T21, TSSK2 (Homo sapiens, UniProt Q96PF2)
T21 construct: purchased Millipore, Inc. (KinaseProfiler service)
How it was run: as §1

p38delta = target: T22, p38delta (Homo sapiens, UniProt O15264)
T22 construct: purchased Millipore, Inc. (KinaseProfiler service)
How it was run: as §1

c-RAF = target: T23, c-RAF (Homo sapiens, UniProt P04049, Y340D/Y341D)
T23 construct: purchased Millipore, Inc. (KinaseProfiler service)
How it was run: as §1

MRCKalpha = target: T24, MRCKalpha (Homo sapiens, UniProt Q5VT25)
T24 construct: purchased Millipore, Inc. (KinaseProfiler service)
How it was run: as §1

CAMK2d = target: T25, CAMK2d (Homo sapiens, UniProt Q13557)
T25 construct: purchased Millipore (KinaseProfiler service)
How it was run: as §1

EphA1 = target: T26, EphA1 (Homo sapiens, UniProt P21709)
T26 construct: purchased Millipore, Inc. (KinaseProfiler service)
How it was run: as §1

MSK2 = target: T27, MSK2 (Homo sapiens, UniProt O75676)
T27 construct: purchased Millipore, Inc. (KinaseProfiler service)
How it was run: as §1

ALK = target: T28, ALK (Homo sapiens, UniProt Q9UM73)
T28 construct: purchased Millipore (KinaseProfiler service)
How it was run: as §1

WNK2 = target: T29, WNK2 (Homo sapiens, UniProt Q9Y3S1)
T29 construct: purchased Millipore, Inc. (KinaseProfiler service)
How it was run: as §1

BTK = target: T30, BTK (Homo sapiens, UniProt Q06187)
T30 construct: purchased Millipore (KinaseProfiler service)
How it was run: as §1

MEK1 = target: T31, MEK1 (Homo sapiens, UniProt Q02750)
T31 construct: purchased Millipore, Inc. (KinaseProfiler service)
How it was run: as §1

NEK2 = target: T32, NEK2 (Homo sapiens, UniProt P51955)
T32 construct: purchased Millipore, Inc. (KinaseProfiler service)
How it was run: as §1

CLK2 = target: T33, CLK2 (Homo sapiens, UniProt P49760)
T33 construct: purchased Millipore, Inc. (KinaseProfiler service)
How it was run: as §1

ARKS = target: T34, ARKS (Homo sapiens, UniProt O60285)
T34 construct: purchased Millipore (KinaseProfiler service)
How it was run: as §1

PKCdelta = target: T35, PKCdelta (Homo sapiens, UniProt Q05655)
T35 construct: purchased Millipore, Inc. (KinaseProfiler service)
How it was run: as §1

CAMK1d = target: T36, CAMK1d (Homo sapiens, UniProt Q8IU85)
T36 construct: purchased Millipore (KinaseProfiler service)
How it was run: as §1

RIPK2 = target: T37, RIPK2 (Homo sapiens, UniProt O43353)
T37 construct: purchased Millipore, Inc. (KinaseProfiler service)
How it was run: as §1

Flt1 = target: T38, Flt1 (Homo sapiens, UniProt P17948)
T38 construct: purchased Millipore, Inc. (KinaseProfiler service)
How it was run: as §1

DAPK3 = target: T39, DAPK3 (Homo sapiens, UniProt O43293)
T39 construct: purchased Millipore, Inc. (KinaseProfiler service)
How it was run: as §1

PKAC-alpha = target: T40, PKAC-alpha (Homo sapiens, UniProt P17612)
T40 construct: purchased Millipore, Inc. (KinaseProfiler service)
How it was run: as §1

GSK3alpha = target: T41, GSK3alpha (Homo sapiens, UniProt P49840)
T41 construct: purchased Millipore, Inc. (KinaseProfiler service)
How it was run: as §1

T2 sequence (Q02763 23-1124): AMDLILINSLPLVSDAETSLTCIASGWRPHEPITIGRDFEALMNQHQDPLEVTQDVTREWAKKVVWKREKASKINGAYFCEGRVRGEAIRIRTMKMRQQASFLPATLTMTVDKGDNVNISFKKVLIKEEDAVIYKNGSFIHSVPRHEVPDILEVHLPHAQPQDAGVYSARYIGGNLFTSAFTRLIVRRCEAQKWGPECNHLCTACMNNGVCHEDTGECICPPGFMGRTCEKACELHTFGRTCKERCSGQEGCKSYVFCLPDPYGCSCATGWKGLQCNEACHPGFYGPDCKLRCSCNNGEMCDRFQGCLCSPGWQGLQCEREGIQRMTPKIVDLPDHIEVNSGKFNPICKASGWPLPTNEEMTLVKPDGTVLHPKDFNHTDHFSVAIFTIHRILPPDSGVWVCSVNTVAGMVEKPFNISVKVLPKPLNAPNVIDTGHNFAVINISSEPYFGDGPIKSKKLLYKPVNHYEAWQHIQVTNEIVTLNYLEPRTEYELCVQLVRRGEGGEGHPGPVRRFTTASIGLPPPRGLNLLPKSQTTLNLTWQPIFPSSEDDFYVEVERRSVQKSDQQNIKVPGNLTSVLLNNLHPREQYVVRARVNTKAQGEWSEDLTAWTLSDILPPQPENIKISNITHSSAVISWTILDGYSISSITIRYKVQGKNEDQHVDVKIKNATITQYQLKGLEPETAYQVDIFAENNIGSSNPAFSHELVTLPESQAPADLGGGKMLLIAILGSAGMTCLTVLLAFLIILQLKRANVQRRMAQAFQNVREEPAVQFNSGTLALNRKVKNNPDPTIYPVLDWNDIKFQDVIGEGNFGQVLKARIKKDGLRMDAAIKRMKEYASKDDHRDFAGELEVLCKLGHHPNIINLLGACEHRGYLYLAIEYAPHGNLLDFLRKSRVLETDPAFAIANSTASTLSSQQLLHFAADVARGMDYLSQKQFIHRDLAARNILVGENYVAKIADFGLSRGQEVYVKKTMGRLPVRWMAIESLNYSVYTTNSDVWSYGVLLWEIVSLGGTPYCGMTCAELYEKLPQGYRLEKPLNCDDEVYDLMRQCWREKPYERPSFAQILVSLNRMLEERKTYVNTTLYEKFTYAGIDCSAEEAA
T12 sequence (Q15349 whole entry): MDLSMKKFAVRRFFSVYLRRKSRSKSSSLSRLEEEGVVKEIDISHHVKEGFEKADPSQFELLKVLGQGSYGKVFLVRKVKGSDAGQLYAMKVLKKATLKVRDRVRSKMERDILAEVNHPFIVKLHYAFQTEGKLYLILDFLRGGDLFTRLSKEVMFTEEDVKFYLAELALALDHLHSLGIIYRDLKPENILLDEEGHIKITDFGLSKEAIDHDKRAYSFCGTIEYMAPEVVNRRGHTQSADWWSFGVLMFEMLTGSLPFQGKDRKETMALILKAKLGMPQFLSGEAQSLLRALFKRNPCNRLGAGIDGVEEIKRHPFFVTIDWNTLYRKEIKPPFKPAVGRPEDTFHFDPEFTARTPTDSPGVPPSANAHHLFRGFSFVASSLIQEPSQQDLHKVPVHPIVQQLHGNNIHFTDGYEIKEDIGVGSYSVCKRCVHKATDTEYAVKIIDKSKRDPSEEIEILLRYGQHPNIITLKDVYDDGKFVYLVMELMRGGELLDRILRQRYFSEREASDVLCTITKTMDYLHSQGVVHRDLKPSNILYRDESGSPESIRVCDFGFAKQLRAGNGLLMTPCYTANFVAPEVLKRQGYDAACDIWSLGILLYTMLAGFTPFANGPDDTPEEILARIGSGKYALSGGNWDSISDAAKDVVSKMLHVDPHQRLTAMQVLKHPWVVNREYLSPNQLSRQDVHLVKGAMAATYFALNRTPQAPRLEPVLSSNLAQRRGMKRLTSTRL
T21 sequence (Q96PF2 whole entry): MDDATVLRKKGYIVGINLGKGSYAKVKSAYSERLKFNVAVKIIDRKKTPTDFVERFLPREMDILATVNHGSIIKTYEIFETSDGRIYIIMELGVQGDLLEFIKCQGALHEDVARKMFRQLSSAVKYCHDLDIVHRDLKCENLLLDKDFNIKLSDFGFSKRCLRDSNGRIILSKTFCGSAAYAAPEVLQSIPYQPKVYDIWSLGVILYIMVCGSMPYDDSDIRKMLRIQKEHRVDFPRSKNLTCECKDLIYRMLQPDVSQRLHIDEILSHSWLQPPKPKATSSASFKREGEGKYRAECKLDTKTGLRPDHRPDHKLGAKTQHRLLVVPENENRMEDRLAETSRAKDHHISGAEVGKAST
T33 sequence (P49760 whole entry): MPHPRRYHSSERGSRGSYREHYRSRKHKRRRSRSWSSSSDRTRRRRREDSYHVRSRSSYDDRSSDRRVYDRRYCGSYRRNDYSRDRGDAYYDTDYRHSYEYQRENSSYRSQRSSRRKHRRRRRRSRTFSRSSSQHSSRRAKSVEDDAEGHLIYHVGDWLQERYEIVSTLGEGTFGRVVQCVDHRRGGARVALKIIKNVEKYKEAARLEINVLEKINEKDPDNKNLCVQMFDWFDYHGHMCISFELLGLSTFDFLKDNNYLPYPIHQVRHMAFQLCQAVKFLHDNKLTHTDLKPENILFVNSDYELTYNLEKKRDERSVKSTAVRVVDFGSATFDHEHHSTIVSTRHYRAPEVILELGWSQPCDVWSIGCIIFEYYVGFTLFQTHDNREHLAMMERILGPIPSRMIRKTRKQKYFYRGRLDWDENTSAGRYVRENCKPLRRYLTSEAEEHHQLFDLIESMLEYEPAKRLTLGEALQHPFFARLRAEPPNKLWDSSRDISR
T39 sequence (O43293 whole entry): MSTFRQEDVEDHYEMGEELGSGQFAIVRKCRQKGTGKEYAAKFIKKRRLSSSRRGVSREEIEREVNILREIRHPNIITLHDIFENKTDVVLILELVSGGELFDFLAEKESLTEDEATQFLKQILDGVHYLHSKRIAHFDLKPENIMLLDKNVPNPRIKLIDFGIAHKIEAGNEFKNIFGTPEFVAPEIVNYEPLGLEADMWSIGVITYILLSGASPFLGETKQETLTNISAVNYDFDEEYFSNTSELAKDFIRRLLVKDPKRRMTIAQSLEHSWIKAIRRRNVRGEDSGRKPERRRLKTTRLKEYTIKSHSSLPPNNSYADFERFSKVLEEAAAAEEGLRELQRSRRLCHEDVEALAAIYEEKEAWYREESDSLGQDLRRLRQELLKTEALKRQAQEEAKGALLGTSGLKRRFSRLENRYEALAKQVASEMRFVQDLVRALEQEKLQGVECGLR
T5 sequence (P31749 whole entry): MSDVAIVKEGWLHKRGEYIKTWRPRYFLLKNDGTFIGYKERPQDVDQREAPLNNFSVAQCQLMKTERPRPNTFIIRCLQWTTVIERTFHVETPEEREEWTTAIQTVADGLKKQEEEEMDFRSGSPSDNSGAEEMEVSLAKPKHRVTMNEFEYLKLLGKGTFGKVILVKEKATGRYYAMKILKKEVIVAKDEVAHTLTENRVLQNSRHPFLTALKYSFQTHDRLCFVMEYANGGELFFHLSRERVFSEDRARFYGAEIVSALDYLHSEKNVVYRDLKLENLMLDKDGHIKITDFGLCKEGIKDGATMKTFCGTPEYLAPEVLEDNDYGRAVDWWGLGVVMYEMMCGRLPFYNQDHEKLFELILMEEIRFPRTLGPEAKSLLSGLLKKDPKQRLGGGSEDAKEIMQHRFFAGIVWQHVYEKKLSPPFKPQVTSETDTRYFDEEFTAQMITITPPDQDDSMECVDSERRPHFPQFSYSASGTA
T13 sequence (Q99683 whole entry): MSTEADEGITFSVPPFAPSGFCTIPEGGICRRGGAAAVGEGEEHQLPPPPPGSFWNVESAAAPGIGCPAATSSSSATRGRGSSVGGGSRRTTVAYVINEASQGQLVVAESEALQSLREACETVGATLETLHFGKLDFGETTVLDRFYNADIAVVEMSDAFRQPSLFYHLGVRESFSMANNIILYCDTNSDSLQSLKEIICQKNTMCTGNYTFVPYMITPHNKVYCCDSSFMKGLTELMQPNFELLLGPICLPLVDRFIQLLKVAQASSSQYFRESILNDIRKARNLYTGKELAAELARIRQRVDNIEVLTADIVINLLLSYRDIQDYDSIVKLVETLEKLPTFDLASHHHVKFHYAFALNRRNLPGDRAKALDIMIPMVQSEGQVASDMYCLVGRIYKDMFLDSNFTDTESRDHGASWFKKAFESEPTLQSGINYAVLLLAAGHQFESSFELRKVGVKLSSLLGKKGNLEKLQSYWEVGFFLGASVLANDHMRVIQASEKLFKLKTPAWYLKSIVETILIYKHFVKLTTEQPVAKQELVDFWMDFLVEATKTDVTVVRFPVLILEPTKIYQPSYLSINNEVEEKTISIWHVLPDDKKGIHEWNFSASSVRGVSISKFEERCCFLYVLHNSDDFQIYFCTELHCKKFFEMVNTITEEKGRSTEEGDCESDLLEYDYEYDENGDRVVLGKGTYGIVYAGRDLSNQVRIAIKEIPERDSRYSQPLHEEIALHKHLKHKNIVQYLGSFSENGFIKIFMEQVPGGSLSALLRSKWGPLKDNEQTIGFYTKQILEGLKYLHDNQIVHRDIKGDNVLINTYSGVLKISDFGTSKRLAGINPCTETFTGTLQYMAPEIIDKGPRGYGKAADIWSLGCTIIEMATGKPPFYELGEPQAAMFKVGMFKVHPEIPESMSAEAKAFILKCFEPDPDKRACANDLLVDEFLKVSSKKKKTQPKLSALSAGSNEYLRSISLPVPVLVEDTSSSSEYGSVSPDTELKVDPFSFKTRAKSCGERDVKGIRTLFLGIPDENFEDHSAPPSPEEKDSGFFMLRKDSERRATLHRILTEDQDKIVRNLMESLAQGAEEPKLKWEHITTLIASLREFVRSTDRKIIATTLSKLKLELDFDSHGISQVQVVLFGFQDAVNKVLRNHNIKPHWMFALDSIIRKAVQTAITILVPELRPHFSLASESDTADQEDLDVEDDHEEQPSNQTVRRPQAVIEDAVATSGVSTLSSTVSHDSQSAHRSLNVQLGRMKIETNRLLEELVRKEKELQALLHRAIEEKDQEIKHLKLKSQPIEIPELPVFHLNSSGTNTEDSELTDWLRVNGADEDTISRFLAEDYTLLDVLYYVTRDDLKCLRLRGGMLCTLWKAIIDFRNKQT

## COCCCc1cc(Cl)c(Cl)cc1NC(=O)Nc1c(C)c(-c2cnn(C)c2)nn1-c1ccccc1 [Example 15, 1-(4,5-dichloro-2-(3-methoxypropyl)phenyl)-3-(1′,4-dimethyl-1-phenyl-1H,1′H-[3,4′-bipyrazol]-5-yl)urea]
MELK
  Avg POC: 142.5 POC
Tie2
  Avg POC: 160.5 POC
CDK6/cyclinD3
  Avg POC: 111 POC
EphA4
  Avg POC: 115 POC
AKT1
  Avg POC: 120 POC
KIT
  Avg POC: 99.5 POC
IRAK4
  Avg POC: 124.5 POC
IKKbeta
  Avg POC: 113.5 POC
Hck
  Avg POC: 89 POC
Ret
  Avg POC: 91.5 POC
MuSK
  Avg POC: 100 POC
Rsk3
  Avg POC: 104 POC
MAP3K5
  Avg POC: 105 POC
PKCepsilon
  Avg POC: 97 POC
JNK2alpha2
  Avg POC: 92 POC
LOK
  Avg POC: 135 POC
Pim-3
  Avg POC: 105.5 POC
ITK
  Avg POC: 125 POC
Lck
  Avg POC: 94.5 POC
MAPKAP-K3
  Avg POC: 112.5 POC
TSSK2
  Avg POC: 114.5 POC
p38delta
  Avg POC: 100.5 POC
c-RAF
  Avg POC: 98.5 POC
MRCKalpha
  Avg POC: 137 POC
CAMK2d
  Avg POC: 135.5 POC
EphA1
  Avg POC: 117 POC
MSK2
  Avg POC: 147 POC
ALK
  Avg POC: 105 POC
WNK2
  Avg POC: 122.5 POC
BTK
  Avg POC: 119.5 POC
MEK1
  Avg POC: 121.5 POC
NEK2
  Avg POC: 88.5 POC
CLK2
  Avg POC: 111.5 POC
ARKS
  Avg POC: 97.5 POC
PKCdelta
  Avg POC: 96 POC
CAMK1d
  Avg POC: 103 POC
RIPK2
  Avg POC: 102 POC
Flt1
  Avg POC: 97.5 POC
DAPK3
  Avg POC: 106 POC
PKAC-alpha
  Avg POC: 149 POC
GSK3alpha
  Avg POC: 131 POC
